Reference: patent US20220213198A1, “METHOD OF TREATMENT” (The Council of the Queensland Institute of Medical Research, priority 2019, published 2022)

B1: 8F2.F9: anti-MR1 blocking antibody from hybridoma clone 8F2.F9, IgG1 isotype; heavy chain SEQ ID NO: 14, light chain SEQ ID NO: 18 (antibody, listed as Mus musculus, V domains shown)
VH: MKFSWVIFFLMAVVTGVNSEVQLQQSVAELVRPGASVKLSCTASGFNIKNTYMHWVKKRPELGLEWIGRIDPANGNTNFAPKFQGKATITADTSSNTAYLQLSSLTSEDTAIYYCPRGSGNYYFDYWGQGTTLTVSS
VL: MSSAQFLGLLLLCFQGTRCDIQMTQTTSSLSASLGDRVTISCRASQDISNYLNWYQQKPDGPVKLLIYYTSRLHSGVPSRFSGSGSGTDYSLTINNLAQEDIATYFCQQGNTLPYTFGGGTKLEIK

What was measured:
B16F10 melanoma cells = experiment: B16F10 experimental lung metastasis model; format: in vivo, mouse
Protocol: FIG. 2. […] (A) The schematic and timeline of expanding MAIT cells from splenocytes derived from C57BL/6 WT mice with IL-2 and 5-OP-RU, for sorting and adoptive transfer into tumor-bearing mice. (B, C) Groups of WT or MR1^−/− or Rag2cγ^−/− mice (n=5-6/group) were injected i.v. with (B) 1×10^5 or (C) 1×10^4 B16F10 melanoma cells. In some groups, sorted MAIT or T conventional cells (cT) (non-MAIT αβ^+ T cells) (2×10^5 cells/mouse) from C57BL/6 (B) WT or (C) TCRδ^−/− mice were i.v. injected into the indicated groups of mice one day before tumor inoculation. (C) One group of mice received i.v injection of media alone as a control. (B, C) On day 14 relative to tumor cell inoculation, lungs were harvested and the metastatic burden was quantified by counting colonies on the lung surface. Data presented as mean±SEM. (D) B16F10 or LWT1 melanoma cells were stimulated in vitro with DMSO or 5-OP-RU (100 nM) for 4 hours before cell surface MR1 expression was determined by flow cytometry. Groups of C57BL/6 WT or MR1^−/− mice (n=5-6/group) were i.v. injected with (E) 1×10^5 B16F10 or (F) 5×10^5 LWT1 cells melanoma cells pulsed with DMSO or 5-OP-RU (100 nM, 4 hours). Fourteen days later relative to tumor cell inoculation, lungs were harvested and the metastatic burden was quantified by counting colonies on the lung surface. Data presented as mean±SEM. Experiments performed once for (B, C, F) and three times for (D, E) with one representative experiment shown. Significant differences between groups as indicated by crossbars were determined using a one-way ANOVA followed by Tukey's post-hoc test (B, E, F), *p<0.05, **p<0.01, ****p<0.0001
FIG. 5. […] (A) Generation of three independent B16F10 cell lines knocked out for MR1 using three different MR1 sgRNA. […] Empty vector transfected B16F10 cells were used as a positive control. (B, C) Groups of C57BL/6 WT, MR1^−/− or Rag2cγ^−/− mice (n=5-6/group) were i.v. injected with either (B) 1×10^5 B16F10 vector control cells or the indicated clone of B16F10 cells lacking MR1 (sgR1, sgR2, sgR3) or (C) 1×10^4 B16F10-MR1^KO cells (sgR3 clone). On day 14 relative to tumor cell inoculation, lungs were harvested and the metastatic burden was quantified by counting colonies on the lung surface. Data presented as mean±SEM. (D) Re-expression of GFP or GFP-MR1 expressing vector into B16F10-MR1^KO (sgR3 clone). MR1 surface expressions of these cells stimulated with or without 5-OP-RU were assessed by flow cytometry. (E) Groups of C57BL/6 WT mice (n=6/group) were i.v. injected with 1×10^5 B16F10-MR1^KO (sgR3 clone) transfected with empty GFP-expressing vector or MR1-GFP-expressing vector. (F) Groups of C57BL/6 WT or MR1^−/− mice were i.v. injected with parental B16F10 cells treated with vehicle (dd H2O) or AC-6-FP (10 μM, 18 hours). On day 14 relative to tumor cell injection, lungs were harvested and the metastatic burden was quantified by counting colonies on the lung surface. Data presented as mean±SEM. Experiments performed twice for (A-E) and once for (F). Significant differences between groups as indicated by crossbars were determined by a one-way ANOVA followed by Tukey's post-hoc test (A, F), or a Mann-Whitney test (C, E), *p<0.05, **p<0.01, ****p<0.0001.
FIG. 6. […] Groups of C57BL/6 WT or MR1^−/− mice (n=5-6/group) were i.v. injected with (A, B) 1×10^5 B16F10, (C) 1×10^5 parental B16F10 or 2×10^5 B16F10-MR1^KO (sgR3 clone) melanoma cells and (D) 5×10^5 LWT1 melanoma cells or s.c injected with (E) 1×10^6 MCA1956 fibrosarcoma or (F) 1×10^6 SM1WT1 melanoma cells on day 0.

MAIT cells = experiment: In vitro co-culture of purified splenic MAIT or conventional T cells with ligand-treated B16F10 cells; format: cell-based, mouse

| Molecule | number of lung metastases (B16F10 melanoma cells; MR1-/- mice i.v. injected with pre-treated B16F10, vs DMSO-treated, day 14) | number of lung metastases (B16F10 melanoma cells; WT mice i.v. injected with B16F10 pre-treated 100 nM 4 h, vs DMSO-treated, day 14) | cytokine production (MAIT cells; conventional T cells with treated vs DMSO-treated B16F10) | number of treated CTV-labeled B16F10 cells (MAIT cells; following co-culture with MAIT cells) | IFNγ, IL-17A and TNF production (MAIT cells; purified splenic MAIT cells with treated vs DMSO-treated B16F10) | number of lung metastases (B16F10 melanoma cells; B16F10 tumor-bearing MR1-/- mice, antibody vs cIg) | suppression of B16F10 lung metastases compared with the 26.5 clone (B16F10 melanoma cells; WT mice, 250 μg/mouse i.p.) | suppression of B16F10 lung metastases, three vs four doses (B16F10 melanoma cells; WT mice, 250 μg/mouse i.p., days -1, 0, 3 vs days -1, 0, 3 and 7) | B16F10-MR1 KO (sgR3) lung metastases numbers (B16F10 melanoma cells; WT mice, antibody vs cIg, days -1, 0 and 3) |
| --- | --- | --- | --- | --- | --- | --- | --- | --- | --- |
| CC(=O)C=Nc1c(NC[C@H](O)[C@H](O)[C@H](O)CO)[nH]c(=O)[nH]c1=O [5-OP-RU] | this increase was lost | significantly increased | no increase in cytokine production | decrease | produced more | – | – | – | – |
| B1 | – | – | – | – | – | no further decrease | superior | equivalently reduced | not reduced |
